From patent US20130157954A1, “METHODS FOR TREATMENT OR PROPHYLAXIS OF KIDNEY OR LIVER DYSFUNCTION” (NPS PHARMACEUTICALS, INC., priority 2010, published 2013)

Test: Example 2: liver biomarkers (albumin, gamma glutamyl transferase, total bilirubin, ALT, AST, ALP) in short bowel syndrome patients, every four weeks for 24 weeks; also sorted by >10% change from baseline
Type: in vivo, Human
Settings: 0.05 mg/kg/d; for Alkaline Phosphatase: subjects Within 10% of Baseline / Alkaline Phosphatase: subjects with >10% decrease from Baseline / Alkaline Phosphatase: subjects with >10% increase from Baseline / Bilirubin: subjects Within 10% of Baseline / Bilirubin: subjects with >10% decrease from Baseline / Bilirubin: subjects with >10% increase from Baseline / ALT: subjects Within 10% of Baseline / ALT: subjects with >10% decrease from Baseline / ALT: subjects with >10% increase from Baseline / AST: subjects Within 10% of Baseline / AST: subjects with >10% decrease from Baseline / AST: subjects with >10% increase from Baseline / Albumin: subjects Within 10% of Baseline / Albumin: subjects with >10% decrease from Baseline / Albumin: subjects with >10% increase from Baseline: m = 38
Experimental: To further confirm the results of Example 1, a further study was conducted involving more individuals and additional diagnostic biomarkers. Human patients with short bowel syndrome were divided into two groups: a control group (43 total individuals) to receive placebo, and an experimental group (42 total individuals) to receive teduglutide at 0.05 mg/kg/day throughout the study. Patients were treated by subcutaneous injection of placebo or the appropriate dose of teduglutide. Known biomarkers of liver function were monitored every four weeks, for 24 weeks. The liver biomarkers tested included albumin, gamma glutamyl transferase, total bilirubin, ALT and AST and ALP. Before administration of placebo or teduglutide, diagnostic biomarker levels were tested to establish a baseline for each individual.
To determine the effect of GLP-2 on the levels of the diagnostic biomarkers, the average level of each biomarker was measured for the placebo and teduglutide treated groups for each visit. Furthermore, the average change from baseline was calculated using the established baseline values. For FIGS. 17-28, p-values were calculated using the t-test.
P values are provided, which were calculated for each distribution of biomarker changes for each week using the chi-squared test.

SMILES: CC[C@H](C)[C@H](NC(=O)[C@H](Cc1ccccc1)NC(=O)[C@H](CC(=O)O)NC(=O)[C@H](CCCNC(=N)N)NC(=O)[C@H](C)NC(=O)[C@H](C)NC(=O)[C@H](CC(C)C)NC(=O)[C@H](CC(N)=O)NC(=O)[C@H](CC(=O)O)NC(=O)[C@H](CC(C)C)NC(=O)[C@@H](NC(=O)[C@@H](NC(=O)[C@H](CC(N)=O)NC(=O)[C@H](CCSC)NC(=O)[C@H](CCC(=O)O)NC(=O)[C@H](CC(=O)O)NC(=O)[C@H](CO)NC(=O)[C@H](Cc1ccccc1)NC(=O)[C@H](CO)NC(=O)CNC(=O)[C@H](CC(=O)O)NC(=O)CNC(=O)[C@@H](N)Cc1c[nH]cn1)[C@@H](C)O)[C@@H](C)CC)C(=O)N[C@@H](CC(N)=O)C(=O)N[C@@H](Cc1c[nH]c2ccccc12)C(=O)N[C@@H](CC(C)C)C(=O)N[C@H](C(=O)N[C@@H](CCC(N)=O)C(=O)N[C@H](C(=O)N[C@@H](CCCCN)C(=O)N[C@H](C(=O)N[C@H](C(=O)N[C@@H](CC(=O)O)C(=O)O)[C@@H](C)O)[C@@H](C)CC)[C@@H](C)O)[C@@H](C)CC [teduglutide]
- Alkaline Phosphatase: subjects Within 10% of Baseline (Week 16): 7 (18.4%) n (%)
- Alkaline Phosphatase: subjects with >10% decrease from Baseline (Week 16): 23 (60.5%) n (%)
- Alkaline Phosphatase: subjects with >10% increase from Baseline (Week 16): 8 (21.1%) n (%)
- Bilirubin: subjects Within 10% of Baseline (Week 16): 5 (13.2%) n (%)
- Bilirubin: subjects with >10% decrease from Baseline (Week 16): 24 (63.2%) n (%)
- Bilirubin: subjects with >10% increase from Baseline (Week 16): 9 (23.7%) n (%)
- ALT Change from Baseline, Max (Week 20): 24 U/L
- ALT Change from Baseline, Median (Week 20): −6.5 U/L
- ALT Change from Baseline, Min (Week 20): −55 U/L
- ALT Observed Value, Max (Week 20): 149 U/L
- ALT Observed Value, Min (Week 20): 5 U/L
- AST Change from Baseline, Max (Week 20): 10 U/L
- AST Change from Baseline, Mean (Week 20): −4.2 U/L
- AST Change from Baseline, Median (Week 20): −2.5 U/L
- AST Change from Baseline, Min (Week 20): −38 U/L
- AST Observed Value, Max (Week 20): 77 U/L
- AST Observed Value, Min (Week 20): 10 U/L
- Albumin Change from Baseline, Max (Week 20): 4 g/L
- Albumin Change from Baseline, Mean (Week 20): -0.6 g/L
- Albumin Change from Baseline, Median (Week 20): -1 g/L
- Albumin Change from Baseline, Min (Week 20): -8 g/L
- Albumin Observed Value, Max (Week 20): 49 g/L
- Albumin Observed Value, Median (Week 20): 43 g/L
- Albumin Observed Value, Min (Week 20): 33 g/L
- Alkaline Phosphatase Change from Baseline, Max (Week 20): 77 U/L
- Alkaline Phosphatase Change from Baseline, Min (Week 20): −117 U/L
- Alkaline Phosphatase Observed Value, Max (Week 20): 303 U/L
- Alkaline Phosphatase Observed Value, Min (Week 20): 54 U/L
- Bilirubin Change from Baseline, Max (Week 20): 2.8 µmol/L
- Bilirubin Change from Baseline, Median (Week 20): -1.7 µmol/L
- Bilirubin Change from Baseline, Min (Week 20): -25.5 µmol/L
- Bilirubin Observed Value, Max (Week 20): 31.9 µmol/L
- Bilirubin Observed Value, Min (Week 20): 3.7 µmol/L
- Gamma Glutamyl Transferase Change from Baseline, Max (Week 20): 57 U/L
- Gamma Glutamyl Transferase Change from Baseline, Mean (Week 20): −9.6 U/L
- Gamma Glutamyl Transferase Change from Baseline, Median (Week 20): −8 U/L
- Gamma Glutamyl Transferase Change from Baseline, Min (Week 20): −146 U/L
- Gamma Glutamyl Transferase Observed Value, Max (Week 20): 261 U/L
- Gamma Glutamyl Transferase Observed Value, Min (Week 20): 8 U/L
- ALT: subjects Within 10% of Baseline (Week 20): 10 (26.3%) n (%)
- ALT: subjects with >10% decrease from Baseline (Week 20): 23 (60.5%) n (%)
- ALT: subjects with >10% increase from Baseline (Week 20): 5 (13.2%) n (%)
- AST: subjects Within 10% of Baseline (Week 20): 11 (28.9%) n (%)
- AST: subjects with >10% decrease from Baseline (Week 20): 20 (52.6%) n (%)
- AST: subjects with >10% increase from Baseline (Week 20): 7 (18.4%) n (%)
- Albumin: subjects Within 10% of Baseline (Week 20): 37 (97.4%) n (%)
- Albumin: subjects with >10% decrease from Baseline (Week 20): 1 (2.6%) n (%)
- Albumin: subjects with >10% increase from Baseline (Week 20): 0 n (%)
- Alkaline Phosphatase: subjects Within 10% of Baseline (Week 20): 12 (31.6%) n (%)
- Alkaline Phosphatase: subjects with >10% decrease from Baseline (Week 20): 23 (60.5%) n (%)
- Alkaline Phosphatase: subjects with >10% increase from Baseline (Week 20): 3 (7.9%) n (%)
- Bilirubin: subjects Within 10% of Baseline (Week 20): 5 (13.2%) n (%)
- Bilirubin: subjects with >10% decrease from Baseline (Week 20): 25 (65.8%) n (%)
- Bilirubin: subjects with >10% increase from Baseline (Week 20): 8 (21.1%) n (%)
- ALT Change from Baseline, Max (Week 24): 21 U/L
- ALT Change from Baseline, Median (Week 24): −7.5 U/L
- ALT Change from Baseline, Min (Week 24): −60 U/L
- ALT Observed Value, Max (Week 24): 91 U/L
- ALT Observed Value, Min (Week 24): 7 U/L
- AST Change from Baseline, Max (Week 24): 14 U/L
- AST Change from Baseline, Mean (Week 24): −5.8 U/L
- AST Change from Baseline, Median (Week 24): −5 U/L
- AST Change from Baseline, Min (Week 24): −47 U/L
- AST Observed Value, Max (Week 24): 73 U/L
- AST Observed Value, Median (Week 24): 23 U/L
- AST Observed Value, Min (Week 24): 11 U/L
- Albumin Change from Baseline, Max (Week 24): 3 g/L
- Albumin Change from Baseline, Mean (Week 24): -0.4 g/L
- Albumin Change from Baseline, Median (Week 24): 0 g/L
- Albumin Change from Baseline, Min (Week 24): -8 g/L
- Albumin Observed Value, Max (Week 24): 48 g/L
- Albumin Observed Value, Median (Week 24): 42 g/L
- Albumin Observed Value, Min (Week 24): 33 g/L
- Alkaline Phosphatase Change from Baseline, Max (Week 24): 33 U/L
- Alkaline Phosphatase Change from Baseline, Min (Week 24): −122 U/L
- Alkaline Phosphatase Observed Value, Max (Week 24): 328 U/L
- Alkaline Phosphatase Observed Value, Median (Week 24): 88 U/L
- Alkaline Phosphatase Observed Value, Min (Week 24): 49 U/L
- Bilirubin Change from Baseline, Max (Week 24): 3.3 µmol/L
- Bilirubin Change from Baseline, Min (Week 24): -26.1 µmol/L
- Bilirubin Observed Value, Max (Week 24): 31.3 µmol/L
- Bilirubin Observed Value, Median (Week 24): 6.8 µmol/L
- Bilirubin Observed Value, Min (Week 24): 2.5 µmol/L
- Gamma Glutamyl Transferase Change from Baseline, Max (Week 24): 46 U/L
- Gamma Glutamyl Transferase Change from Baseline, Median (Week 24): −6 U/L
- Gamma Glutamyl Transferase Change from Baseline, Min (Week 24): −144 U/L
- Gamma Glutamyl Transferase Observed Value, Max (Week 24): 228 U/L
- Gamma Glutamyl Transferase Observed Value, Min (Week 24): 7 U/L
- ALT: subjects Within 10% of Baseline (Week 24): 10 (26.3%) n (%)
- ALT: subjects with >10% decrease from Baseline (Week 24): 24 (63.2%) n (%)
- ALT: subjects with >10% increase from Baseline (Week 24): 4 (10.5%) n (%)
- AST: subjects Within 10% of Baseline (Week 24): 8 (21.1%) n (%)
- AST: subjects with >10% decrease from Baseline (Week 24): 24 (63.2%) n (%)
- AST: subjects with >10% increase from Baseline (Week 24): 6 (15.8%) n (%)
- Albumin: subjects Within 10% of Baseline (Week 24): 36 (94.7%) n (%)
- Albumin: subjects with >10% decrease from Baseline (Week 24): 2 (5.3%) n (%)
- Albumin: subjects with >10% increase from Baseline (Week 24): 0 n (%)
- Alkaline Phosphatase: subjects Within 10% of Baseline (Week 24): 9 (23.7%) n (%)
- Alkaline Phosphatase: subjects with >10% decrease from Baseline (Week 24): 23 (60.5%) n (%)
- Alkaline Phosphatase: subjects with >10% increase from Baseline (Week 24): 6 (15.8%) n (%)
- Bilirubin: subjects Within 10% of Baseline (Week 24): 6 (15.8%) n (%)
- Bilirubin: subjects with >10% decrease from Baseline (Week 24): 26 (68.4%) n (%)
- Bilirubin: subjects with >10% increase from Baseline (Week 24): 6 (15.8%) n (%)
